Data as given in ChEMBL document CHEMBL5303573, “Mapping human microbiome drug metabolism by gut bacteria and their genes” (Nature, 2019).

Assay: The drug is tested on Bacteroides sp. WH2 strain: WH2 for biotransformation. The drug concentrations were measured before and after a 12-h incubation by liquid-chromatography-coupled mass spectrometry (LC–MS)
Conditions: bacteroides sp. wh2, 12 h, 2 µM

Compound	Bacterial Biotransformation
C[C@@H]1CC[C@H]2[C@@H](C)C(=O)O[C@@H]3O[C@@]4(C)CC[C@@H]1[C@]32OO4 [ARTEMISININ]	Compound metabolized
COc1c(C)c2c(c(O)c1C/C=C(\C)CCC(=O)OCCN1CCOCC1)C(=O)OC2 [MYCOPHENOLATE MOFETIL]	Compound metabolized
COc1ccnc(C[S+]([O-])c2nc3ccc(OC(F)F)cc3[nH]2)c1OC (stereo not given) [PANTOPRAZOLE]	Compound metabolized

Conditions: roseburia intestinalis, 12 h, 2 µM
Description: The drug is tested on Roseburia intestinalis strain: L1-82 for biotransformation. The drug concentrations were measured before and after a 12-h incubation by liquid-chromatography-coupled mass spectrometry (LC–MS)

Compound	Bacterial Biotransformation
C[C@@H]1CC[C@H]2[C@@H](C)C(=O)O[C@@H]3O[C@@]4(C)CC[C@@H]1[C@]32OO4 [ARTEMISININ]	Compound metabolized
COc1c(C)c2c(c(O)c1C/C=C(\C)CCC(=O)OCCN1CCOCC1)C(=O)OC2 [MYCOPHENOLATE MOFETIL]	Compound metabolized
COc1ccnc(C[S+]([O-])c2nc3ccc(OC(F)F)cc3[nH]2)c1OC (stereo not given) [PANTOPRAZOLE]	Compound metabolized

Assay: The drug is tested on Bacteroides fragilis strain: HMW610 for biotransformation. The drug concentrations were measured before and after a 12-h incubation by liquid-chromatography-coupled mass spectrometry (LC–MS)
Conditions: 2 µM

Compound	Bacterial Biotransformation
C[C@@H]1CC[C@H]2[C@@H](C)C(=O)O[C@@H]3O[C@@]4(C)CC[C@@H]1[C@]32OO4 [ARTEMISININ]	Compound metabolized
COc1c(C)c2c(c(O)c1C/C=C(\C)CCC(=O)OCCN1CCOCC1)C(=O)OC2 [MYCOPHENOLATE MOFETIL]	Compound metabolized
COc1ccnc(C[S+]([O-])c2nc3ccc(OC(F)F)cc3[nH]2)c1OC (stereo not given) [PANTOPRAZOLE]	Compound metabolized

Assay: The drug is tested on Clostridium asparagiforme strain: DSM15981 for biotransformation. The drug concentrations were measured before and after a 12-h incubation by liquid-chromatography-coupled mass spectrometry (LC–MS)
Assay type: ADME
Design: dose 2 uM, timepoint 0 vs 12 hours
Conditions: enterocloster asparagiformis, 2 µM

Compound	Bacterial Biotransformation
C[C@@H]1CC[C@H]2[C@@H](C)C(=O)O[C@@H]3O[C@@]4(C)CC[C@@H]1[C@]32OO4 [ARTEMISININ]	Compound metabolized
COc1c(C)c2c(c(O)c1C/C=C(\C)CCC(=O)OCCN1CCOCC1)C(=O)OC2 [MYCOPHENOLATE MOFETIL]	Compound metabolized
COc1ccnc(C[S+]([O-])c2nc3ccc(OC(F)F)cc3[nH]2)c1OC (stereo not given) [PANTOPRAZOLE]	Compound metabolized

Assay: The drug is tested on Subdoligranulum variabile strain: DSM15176 for biotransformation. The drug concentrations were measured before and after a 12-h incubation by liquid-chromatography-coupled mass spectrometry (LC–MS)
Conditions: 2 µM

Compound	Bacterial Biotransformation
C[C@@H]1CC[C@H]2[C@@H](C)C(=O)O[C@@H]3O[C@@]4(C)CC[C@@H]1[C@]32OO4 [ARTEMISININ]	Compound metabolized
COc1c(C)c2c(c(O)c1C/C=C(\C)CCC(=O)OCCN1CCOCC1)C(=O)OC2 [MYCOPHENOLATE MOFETIL]	Compound metabolized
COc1ccnc(C[S+]([O-])c2nc3ccc(OC(F)F)cc3[nH]2)c1OC (stereo not given) [PANTOPRAZOLE]	Compound metabolized

Assay: The drug is tested on Dorea formicigenerans strain: ATCC27755 for biotransformation. The drug concentrations were measured before and after a 12-h incubation by liquid-chromatography-coupled mass spectrometry (LC–MS)
Conditions: 2 µM

Compound	Bacterial Biotransformation
C[C@@H]1CC[C@H]2[C@@H](C)C(=O)O[C@@H]3O[C@@]4(C)CC[C@@H]1[C@]32OO4 [ARTEMISININ]	Compound metabolized
COc1c(C)c2c(c(O)c1C/C=C(\C)CCC(=O)OCCN1CCOCC1)C(=O)OC2 [MYCOPHENOLATE MOFETIL]	Compound metabolized
COc1ccnc(C[S+]([O-])c2nc3ccc(OC(F)F)cc3[nH]2)c1OC (stereo not given) [PANTOPRAZOLE]	Compound metabolized

Assay: The drug is tested on Bacteroides cellulosilyticus strain: DSM14838 for biotransformation. The drug concentrations were measured before and after a 12-h incubation by liquid-chromatography-coupled mass spectrometry (LC–MS)
Conditions: 2 µM

Compound	Bacterial Biotransformation
C[C@@H]1CC[C@H]2[C@@H](C)C(=O)O[C@@H]3O[C@@]4(C)CC[C@@H]1[C@]32OO4 [ARTEMISININ]	Compound metabolized
COc1c(C)c2c(c(O)c1C/C=C(\C)CCC(=O)OCCN1CCOCC1)C(=O)OC2 [MYCOPHENOLATE MOFETIL]	Compound metabolized
COc1ccnc(C[S+]([O-])c2nc3ccc(OC(F)F)cc3[nH]2)c1OC (stereo not given) [PANTOPRAZOLE]	Compound metabolized

Assay: The drug is tested on Blautia hansenii strain: DSM20583 for biotransformation. The drug concentrations were measured before and after a 12-h incubation by liquid-chromatography-coupled mass spectrometry (LC–MS)
Conditions: 2 µM

Compound	Bacterial Biotransformation
C[C@@H]1CC[C@H]2[C@@H](C)C(=O)O[C@@H]3O[C@@]4(C)CC[C@@H]1[C@]32OO4 [ARTEMISININ]	Compound metabolized
COc1c(C)c2c(c(O)c1C/C=C(\C)CCC(=O)OCCN1CCOCC1)C(=O)OC2 [MYCOPHENOLATE MOFETIL]	Compound metabolized
COc1ccnc(C[S+]([O-])c2nc3ccc(OC(F)F)cc3[nH]2)c1OC (stereo not given) [PANTOPRAZOLE]	Compound metabolized

Assay: The drug is tested on Escherichia coli strain: BW25113 for biotransformation. The drug concentrations were measured before and after a 12-h incubation by liquid-chromatography-coupled mass spectrometry (LC–MS)
Conditions: 2 µM

Compound	Bacterial Biotransformation
C[C@@H]1CC[C@H]2[C@@H](C)C(=O)O[C@@H]3O[C@@]4(C)CC[C@@H]1[C@]32OO4 [ARTEMISININ]	Compound metabolized
COc1c(C)c2c(c(O)c1C/C=C(\C)CCC(=O)OCCN1CCOCC1)C(=O)OC2 [MYCOPHENOLATE MOFETIL]	Compound metabolized
COc1ccnc(C[S+]([O-])c2nc3ccc(OC(F)F)cc3[nH]2)c1OC (stereo not given) [PANTOPRAZOLE]	Compound metabolized

Conditions: bacteroides thetaiotaomicron, 12 h, 2 µM
Description: The drug is tested on Bacteroides thetaiotaomicron strain: 7330 for biotransformation. The drug concentrations were measured before and after a 12-h incubation by liquid-chromatography-coupled mass spectrometry (LC–MS)

Compound	Bacterial Biotransformation
C[C@@H]1CC[C@H]2[C@@H](C)C(=O)O[C@@H]3O[C@@]4(C)CC[C@@H]1[C@]32OO4 [ARTEMISININ]	Compound metabolized
COc1c(C)c2c(c(O)c1C/C=C(\C)CCC(=O)OCCN1CCOCC1)C(=O)OC2 [MYCOPHENOLATE MOFETIL]	Compound metabolized
COc1ccnc(C[S+]([O-])c2nc3ccc(OC(F)F)cc3[nH]2)c1OC (stereo not given) [PANTOPRAZOLE]	Compound metabolized

Conditions: bacteroides eggerthii, 12 h, 2 µM
Description: The drug is tested on Bacteroides eggerthii strain: DSM20697 for biotransformation. The drug concentrations were measured before and after a 12-h incubation by liquid-chromatography-coupled mass spectrometry (LC–MS)

Compound	Bacterial Biotransformation
C[C@@H]1CC[C@H]2[C@@H](C)C(=O)O[C@@H]3O[C@@]4(C)CC[C@@H]1[C@]32OO4 [ARTEMISININ]	Compound metabolized
COc1c(C)c2c(c(O)c1C/C=C(\C)CCC(=O)OCCN1CCOCC1)C(=O)OC2 [MYCOPHENOLATE MOFETIL]	Compound metabolized
COc1ccnc(C[S+]([O-])c2nc3ccc(OC(F)F)cc3[nH]2)c1OC (stereo not given) [PANTOPRAZOLE]	Compound metabolized

Assay: The drug is tested on Eubacterium ventriosum strain: ATCC27560 for biotransformation. The drug concentrations were measured before and after a 12-h incubation by liquid-chromatography-coupled mass spectrometry (LC–MS)
Assay type: ADME
Design: dose 2 uM, timepoint 0 vs 12 hours
Conditions: 2 µM

Compound	Bacterial Biotransformation
C[C@@H]1CC[C@H]2[C@@H](C)C(=O)O[C@@H]3O[C@@]4(C)CC[C@@H]1[C@]32OO4 [ARTEMISININ]	Compound metabolized
COc1c(C)c2c(c(O)c1C/C=C(\C)CCC(=O)OCCN1CCOCC1)C(=O)OC2 [MYCOPHENOLATE MOFETIL]	Compound metabolized
COc1ccnc(C[S+]([O-])c2nc3ccc(OC(F)F)cc3[nH]2)c1OC (stereo not given) [PANTOPRAZOLE]	Compound metabolized

Conditions: victivallis vadensis, 12 h, 2 µM
Description: The drug is tested on Victivallis vadensis strain: ATCC BAA-548 for biotransformation. The drug concentrations were measured before and after a 12-h incubation by liquid-chromatography-coupled mass spectrometry (LC–MS)

Compound	Bacterial Biotransformation
C[C@@H]1CC[C@H]2[C@@H](C)C(=O)O[C@@H]3O[C@@]4(C)CC[C@@H]1[C@]32OO4 [ARTEMISININ]	Compound metabolized
COc1c(C)c2c(c(O)c1C/C=C(\C)CCC(=O)OCCN1CCOCC1)C(=O)OC2 [MYCOPHENOLATE MOFETIL]	Compound metabolized
COc1ccnc(C[S+]([O-])c2nc3ccc(OC(F)F)cc3[nH]2)c1OC (stereo not given) [PANTOPRAZOLE]	Compound metabolized

Assay: The drug is tested on Collinsella intestinalis strain: DSM13280 for biotransformation. The drug concentrations were measured before and after a 12-h incubation by liquid-chromatography-coupled mass spectrometry (LC–MS)
Conditions: 2 µM

Compound	Bacterial Biotransformation
C[C@@H]1CC[C@H]2[C@@H](C)C(=O)O[C@@H]3O[C@@]4(C)CC[C@@H]1[C@]32OO4 [ARTEMISININ]	Compound metabolized
COc1c(C)c2c(c(O)c1C/C=C(\C)CCC(=O)OCCN1CCOCC1)C(=O)OC2 [MYCOPHENOLATE MOFETIL]	Compound metabolized
COc1ccnc(C[S+]([O-])c2nc3ccc(OC(F)F)cc3[nH]2)c1OC (stereo not given) [PANTOPRAZOLE]	Compound metabolized

Conditions: segatella copri, 12 h, 2 µM
Description: The drug is tested on Prevotella copri strain: DSM18205 for biotransformation. The drug concentrations were measured before and after a 12-h incubation by liquid-chromatography-coupled mass spectrometry (LC–MS)

Compound	Bacterial Biotransformation
C[C@@H]1CC[C@H]2[C@@H](C)C(=O)O[C@@H]3O[C@@]4(C)CC[C@@H]1[C@]32OO4 [ARTEMISININ]	Compound metabolized
COc1c(C)c2c(c(O)c1C/C=C(\C)CCC(=O)OCCN1CCOCC1)C(=O)OC2 [MYCOPHENOLATE MOFETIL]	Compound metabolized
COc1ccnc(C[S+]([O-])c2nc3ccc(OC(F)F)cc3[nH]2)c1OC (stereo not given) [PANTOPRAZOLE]	Compound metabolized

Conditions: bacteroides thetaiotaomicron, 12 h, 2 µM
Remark: another data set of the same source
Description: The drug is tested on Bacteroides thetaiotaomicron strain: VPI-5482 for biotransformation. The drug concentrations were measured before and after a 12-h incubation by liquid-chromatography-coupled mass spectrometry (LC–MS)

Compound	Bacterial Biotransformation
C[C@@H]1CC[C@H]2[C@@H](C)C(=O)O[C@@H]3O[C@@]4(C)CC[C@@H]1[C@]32OO4 [ARTEMISININ]	Compound metabolized
COc1c(C)c2c(c(O)c1C/C=C(\C)CCC(=O)OCCN1CCOCC1)C(=O)OC2 [MYCOPHENOLATE MOFETIL]	Compound metabolized
COc1ccnc(C[S+]([O-])c2nc3ccc(OC(F)F)cc3[nH]2)c1OC (stereo not given) [PANTOPRAZOLE]	Compound metabolized

Assay: The drug is tested on Blautia luti strain: DSM14534 for biotransformation. The drug concentrations were measured before and after a 12-h incubation by liquid-chromatography-coupled mass spectrometry (LC–MS)
Assay type: ADME
Design: dose 2 uM, timepoint 0 vs 12 hours
Conditions: 2 µM

Compound	Bacterial Biotransformation
C[C@@H]1CC[C@H]2[C@@H](C)C(=O)O[C@@H]3O[C@@]4(C)CC[C@@H]1[C@]32OO4 [ARTEMISININ]	Compound metabolized
COc1c(C)c2c(c(O)c1C/C=C(\C)CCC(=O)OCCN1CCOCC1)C(=O)OC2 [MYCOPHENOLATE MOFETIL]	Compound metabolized
COc1ccnc(C[S+]([O-])c2nc3ccc(OC(F)F)cc3[nH]2)c1OC (stereo not given) [PANTOPRAZOLE]	Compound metabolized

Assay: The drug is tested on Bacteroides vulgatus strain: ATCC8482 for biotransformation. The drug concentrations were measured before and after a 12-h incubation by liquid-chromatography-coupled mass spectrometry (LC–MS)
Conditions: phocaeicola vulgatus, 2 µM

Compound	Bacterial Biotransformation
C[C@@H]1CC[C@H]2[C@@H](C)C(=O)O[C@@H]3O[C@@]4(C)CC[C@@H]1[C@]32OO4 [ARTEMISININ]	Compound metabolized
COc1c(C)c2c(c(O)c1C/C=C(\C)CCC(=O)OCCN1CCOCC1)C(=O)OC2 [MYCOPHENOLATE MOFETIL]	Compound metabolized
COc1ccnc(C[S+]([O-])c2nc3ccc(OC(F)F)cc3[nH]2)c1OC (stereo not given) [PANTOPRAZOLE]	Compound metabolized

Assay: The drug is tested on Bifidobacterium breve strain: DSM20213 for biotransformation. The drug concentrations were measured before and after a 12-h incubation by liquid-chromatography-coupled mass spectrometry (LC–MS)
Conditions: 2 µM

Compound	Bacterial Biotransformation
C[C@@H]1CC[C@H]2[C@@H](C)C(=O)O[C@@H]3O[C@@]4(C)CC[C@@H]1[C@]32OO4 [ARTEMISININ]	Compound metabolized
COc1c(C)c2c(c(O)c1C/C=C(\C)CCC(=O)OCCN1CCOCC1)C(=O)OC2 [MYCOPHENOLATE MOFETIL]	Compound metabolized
COc1ccnc(C[S+]([O-])c2nc3ccc(OC(F)F)cc3[nH]2)c1OC (stereo not given) [PANTOPRAZOLE]	Compound metabolized

Conditions: akkermansia muciniphila, 12 h, 2 µM
Description: The drug is tested on Akkermansia muciniphila strain: ATCC BAA-835 for biotransformation. The drug concentrations were measured before and after a 12-h incubation by liquid-chromatography-coupled mass spectrometry (LC–MS)

Compound	Bacterial Biotransformation
C[C@@H]1CC[C@H]2[C@@H](C)C(=O)O[C@@H]3O[C@@]4(C)CC[C@@H]1[C@]32OO4 [ARTEMISININ]	Compound metabolized
COc1c(C)c2c(c(O)c1C/C=C(\C)CCC(=O)OCCN1CCOCC1)C(=O)OC2 [MYCOPHENOLATE MOFETIL]	Compound metabolized
COc1ccnc(C[S+]([O-])c2nc3ccc(OC(F)F)cc3[nH]2)c1OC (stereo not given) [PANTOPRAZOLE]	Compound metabolized
